In paper PMC9169222, “Impedance-Based Phenotypic Readout of Transporter Function: A Case for Glutamate Transporters” (Frontiers in Pharmacology, 2022):
Counter-ions that a name gives are not always drawn. Like-named read-outs stand apart in the source and are kept apart here.

Legend:
[1] = biological target: T1, EAAT1 (JumpIn-EAAT1-mock cells) (Homo sapiens, UniProt P43003); assay: Impedance-based TRACT assay (xCELLigence) on mock-transfected JumpIn-EAAT1 cells; format: cell-based; conditions: no inhibitor
T1 construct: expressed in transfected cells; host or cells: Jump In T-REx HEK 293
T1 sequence (P43003 whole entry, the tested form may be a part): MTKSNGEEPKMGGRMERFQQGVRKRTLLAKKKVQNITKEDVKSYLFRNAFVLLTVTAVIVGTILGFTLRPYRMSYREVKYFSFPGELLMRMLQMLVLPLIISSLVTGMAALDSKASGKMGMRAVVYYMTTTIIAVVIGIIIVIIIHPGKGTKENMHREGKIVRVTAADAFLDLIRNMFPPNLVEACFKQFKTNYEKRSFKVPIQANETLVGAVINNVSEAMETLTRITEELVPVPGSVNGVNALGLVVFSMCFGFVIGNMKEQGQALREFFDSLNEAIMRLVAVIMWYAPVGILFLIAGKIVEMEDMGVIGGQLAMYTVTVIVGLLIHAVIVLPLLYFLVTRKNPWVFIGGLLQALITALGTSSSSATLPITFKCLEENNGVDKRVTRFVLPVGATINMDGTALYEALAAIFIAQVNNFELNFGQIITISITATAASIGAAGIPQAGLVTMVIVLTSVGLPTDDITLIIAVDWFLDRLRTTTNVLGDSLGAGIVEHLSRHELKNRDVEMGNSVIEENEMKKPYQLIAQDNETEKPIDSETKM
Experimental: In short, cells are cultured in medium on gold-plated electrodes in microwell E-plates.
Assays were performed at 37°C and 5% CO2 in 96-well PET E-plates in a total volume of 100 µl per well. Prior to cell seeding, the baseline impedance (Z0) was measured in the recording station in 40 µl (two compound additions) or 45 µl (one compound addition) medium in the presence (+) or absence (−) of 1 μg/ml dox. All compounds were diluted in phosphate-buffered saline (PBS) and added in 5 µl per addition using a VIAFLO 96 handheld electronic 96 channel pipette (INTEGRA Biosciences, Tokyo, Japan). When DMSO was used as a solvent for a compound, the final amount of DMSO was kept at 0.1% per well and was included in the vehicle (PBS/DMSO). All conditions were tested at two technical replicates per plate.
Transiently transfected JumpIn-EAAT1 cells were detached using only PBS/EDTA. The E-plate was left to rest at room temperature for 30 min prior to replacement in the recording station at 37°C and 5% CO2. Cell growth was recorded overnight for 22 h. If a pretreatment was required for the experiment, the cells were pretreated after 22 h with either a concentration of inhibitor or vehicle (PBS/DMSO) and cells were monitored for 60 min. For GPCR antagonist experiments, a maximum concentration of LY341495 (1 µM) was used. […] After the pretreatment, cells were stimulated with substrate or vehicle (PBS). […] After stimulation the impedance was measured for at least 2 h. […] Properly washed plates were re-used up to two times.
Experimental data was recorded using RTCA Software v2.0 or v2.1.1 (ACEA Biosciences). In the RTCA Software CI values were normalized to the time point prior to substrate/agonist stimulation resulting in normalized Cell Index (nCI) values. The nCI data were exported and subsequent analyses and data visualizations were done using GraphPad Prism v9 (GraphPad Software, San Diego, CA, United States). […] The potency values of substrates and inhibitory potencies of EAAT inhibitors were determined by fitting the net AUC data to a sigmoidal concentration-effect curve with a variable slope.

[2] = biological target: T2, EAAT1 / mGluR2 (JumpIn-EAAT1-mGluR2 cells) (Homo sapiens, UniProt P43003); assay: Impedance-based TRACT assay (xCELLigence) on JumpIn-EAAT1-mGluR2 cells; format: cell-based
T2 construct: FLAG-tag (N); expressed in transfected cells; host or cells: Jump In T-REx HEK 293 (JumpIn-EAAT1), transiently transfected with mGluR2 cDNA
T2 sequence (P43003 whole entry, the tested form may be a part): as above

[3] = system: EAAT1 / mGluR2 (JumpIn-EAAT1-mGluR2 cells); assay: as above; format: cell-based, human; conditions: for Substrate pEC50 ± SEM (AUC = 0–15 min): JumpIn-EAAT1-mGluR2, +dox
[4] = biological target: T3, EAAT5 (JumpIn-EAAT5 cells) (Homo sapiens, UniProt O00341); assay: Impedance-based phenotypic assay on JumpIn-EAAT5 cells; format: cell-based; conditions: JumpIn-EAAT5, 1 mM L-glu, p = 0.0032
T3 construct: expressed in transfected cells; host or cells: Jump In T-REx HEK 293
T3 sequence (O00341 whole entry): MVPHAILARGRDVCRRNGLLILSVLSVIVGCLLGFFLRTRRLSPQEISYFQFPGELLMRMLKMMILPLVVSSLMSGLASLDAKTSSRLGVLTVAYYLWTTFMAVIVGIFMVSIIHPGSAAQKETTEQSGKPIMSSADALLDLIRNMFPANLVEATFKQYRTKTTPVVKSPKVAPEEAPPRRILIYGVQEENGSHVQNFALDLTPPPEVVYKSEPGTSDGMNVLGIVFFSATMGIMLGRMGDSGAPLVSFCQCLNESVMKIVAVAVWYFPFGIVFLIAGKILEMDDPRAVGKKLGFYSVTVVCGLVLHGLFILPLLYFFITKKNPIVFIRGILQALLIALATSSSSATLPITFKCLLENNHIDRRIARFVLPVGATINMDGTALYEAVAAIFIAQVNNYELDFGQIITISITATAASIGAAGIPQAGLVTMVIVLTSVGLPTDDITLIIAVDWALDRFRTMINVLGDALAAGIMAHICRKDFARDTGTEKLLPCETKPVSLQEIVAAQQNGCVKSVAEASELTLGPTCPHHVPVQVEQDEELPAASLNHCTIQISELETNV
Experimental: Label-free whole-cell assays, based on cell-induced changes in impedance, were performed using the xCELLigence real-time cell analyzer (RTCA) system (ACEA Biosciences, San Diego, CA, United States) as described previously ([Vlachodimou et al., 2019]; [Sijben et al., 2021a], [2021b]). In short, cells are cultured in medium on gold-plated electrodes in microwell E-plates. Per well impedance is continuously measured at 10 kHz and is converted to the unitless parameter Cell Index (CI) by the following formula: CI=(Zi−Z0)Ω/15Ω where Zi is the impedance at any given time point and Z0 is the baseline impedance measured at the start of each experiment ([Kho et al., 2015]).
Assays were performed at 37°C and 5% CO2 in 96-well PET E-plates in a total volume of 100 µl per well. Prior to cell seeding, the baseline impedance (Z0) was measured in the recording station in 40 µl (two compound additions) or 45 µl (one compound addition) medium in the presence (+) or absence (−) of 1 μg/ml dox. […]
On the day of the experiment, JumpIn-EAAT cells grown to 70–80% confluence were trypsinized (0.25% trypsin in PBS/EDTA), counted and seeded in the E-plate in a volume of 50 μl at 60,000 cells/well. […] Cell growth was recorded overnight for 22 h. […] After stimulation the impedance was measured for at least 2 h. […]
Experimental data was recorded using RTCA Software v2.0 or v2.1.1 (ACEA Biosciences). […]

N[C@@H](CCC(=O)O)C(=O)O [L-glutamate, L-glutamic acid monosodium salt monohydrate]
EC50 ([1]; +dox, net AUC 0–15 min, read-out: Substrate pEC50 ± SEM (AUC = 0–15 min) (converted)): > 1000 µM | EC50 ([1]; +dox, net AUC 0–120 min, read-out: Substrate pEC50 ± SEM (AUC = 0–120 min) (converted)): 316 µM | EC50 ([1]; Substrate pEC50 ± SEM (AUC = 0–120 min), −dox, net AUC 0–120 min): 100 µM | EC50 [2]: 501 µM | Substrate pEC50 ± SEM (AUC = 0–15 min) ([3]; no inhibitor, net AUC 0–15 min): <3.0 | Substrate pEC50 ± SEM (AUC = 0–15 min) ([3]; pretreated 1 h with 10 µM UCPH-101, net AUC 0–15 min): 3.7 ± 0.2 | Substrate pEC50 ± SEM (AUC = 0–120 min) ([3]; JumpIn-EAAT1-mGluR2, −dox, no inhibitor, net AUC 0–120 min): 4.3 ± 0.1 | Response in dox-induced vs non-induced cells [4]: significantly higher
